Assay results taken from the Biogen ADME set (Fang et al. 2023).
In brackets after ≈: the same amount, converted by molar mass.

Settings: for aqueous solubility: pH 6.8

CNc1ncnc2c1ncn2[C@H]1CC[C@H](NC(=O)CCCNC(=O)OC(C)(C)C)[C@H](O)[C@H]1O
MDR1-MDCK efflux ratio: 3.2 | intrinsic clearance, human liver microsomes: 5.08 mL/min/kg | intrinsic clearance, rat liver microsomes: 19.9 mL/min/kg

CNC(=O)c1cccc(NC(=O)N2CCC(Oc3ccccc3Cl)CC2)c1
MDR1-MDCK efflux ratio: 20 | fraction unbound, human plasma: 0.117 | intrinsic clearance, human liver microsomes: 6.6 mL/min/kg | intrinsic clearance, rat liver microsomes: 223 mL/min/kg | aqueous solubility: 68.8 µg/mL (≈ 177 µM)

Cc1nc(O)cc(C2CN(C3CCCCC3)C2)n1
MDR1-MDCK efflux ratio: 16.5 | intrinsic clearance, human liver microsomes: ≤ 4.74 mL/min/kg | intrinsic clearance, rat liver microsomes: ≤ 10.7 mL/min/kg | aqueous solubility: 41.4 µg/mL (≈ 167 µM)

O=S(=O)(NCCC(c1ccccc1)c1ccccc1)c1ccc(Cl)cc1
intrinsic clearance, human liver microsomes: 396 mL/min/kg | intrinsic clearance, rat liver microsomes: 9320 mL/min/kg

O=C(O)c1ccc(-c2c[nH]c3ncc(-c4ccccc4)cc23)cc1C1CCCC1
MDR1-MDCK efflux ratio: 1.54 | aqueous solubility: 0.41 µg/mL (≈ 1.07 µM)

COc1ncccc1NC(=O)c1cccc(C)n1
intrinsic clearance, human liver microsomes: 150 mL/min/kg | intrinsic clearance, rat liver microsomes: 184 mL/min/kg | aqueous solubility: 23.9 µg/mL (≈ 98.2 µM)

CC(=O)N1CCc2cc(Nc3nccc(C(F)(F)F)n3)ccc21
intrinsic clearance, human liver microsomes: 130 mL/min/kg | intrinsic clearance, rat liver microsomes: 271 mL/min/kg | aqueous solubility: 1.2 µg/mL (≈ 3.72 µM)

NCc1cccc(C(=O)N2CCCC2)c1
MDR1-MDCK efflux ratio: 3.58 | intrinsic clearance, human liver microsomes: ≤ 4.74 mL/min/kg | intrinsic clearance, rat liver microsomes: ≤ 10.7 mL/min/kg | aqueous solubility: 25.4 µg/mL (≈ 124 µM)

CC(=O)NC[C@H]1C[C@]2(C)[C@@H](CCCC[C@]2(C)O)N1CC1(O)CCCCCC1
intrinsic clearance, human liver microsomes: 51.2 mL/min/kg | intrinsic clearance, rat liver microsomes: 587 mL/min/kg

CCC(=O)Nc1ccc(F)c(NC(=O)N2CC=C(C)CC2)c1
MDR1-MDCK efflux ratio: 1.35 | intrinsic clearance, human liver microsomes: 9.2 mL/min/kg | intrinsic clearance, rat liver microsomes: 68.6 mL/min/kg

Cc1ccc(Nc2ccnc(Nc3ccc(C)cc3)n2)cc1
MDR1-MDCK efflux ratio: 0.2 | intrinsic clearance, human liver microsomes: 85.2 mL/min/kg | intrinsic clearance, rat liver microsomes: 477 mL/min/kg

CCOC1CCN(C(=O)Cn2c(=O)[nH]c3ccccc32)CC1
MDR1-MDCK efflux ratio: 16.9 | intrinsic clearance, human liver microsomes: ≤ 4.74 mL/min/kg | intrinsic clearance, rat liver microsomes: 20.2 mL/min/kg | aqueous solubility: 47.3 µg/mL (≈ 156 µM)

COCC(C)(C)CNC(=O)C1(Cn2cccn2)CC1
intrinsic clearance, human liver microsomes: 13 mL/min/kg | intrinsic clearance, rat liver microsomes: 188 mL/min/kg

O=C(c1ccc2[nH]ccc2c1)N1CCCC(c2cccc(-c3ccc(F)cc3)n2)C1 (stereo not drawn)
MDR1-MDCK efflux ratio: 1.6 | intrinsic clearance, human liver microsomes: 72.8 mL/min/kg | intrinsic clearance, rat liver microsomes: 571 mL/min/kg | aqueous solubility: 2.35 µg/mL (≈ 5.88 µM)

CC(C)(C)OC(=O)N1CC=C(CCC(=O)NO)C1
aqueous solubility: 44 µg/mL (≈ 172 µM)

CCC(=O)NCc1cc(C2CC2)n(C2CCCC2)n1
MDR1-MDCK efflux ratio: 1.05 | intrinsic clearance, human liver microsomes: 10.1 mL/min/kg | intrinsic clearance, rat liver microsomes: 218 mL/min/kg | aqueous solubility: 25 µg/mL (≈ 95.7 µM)

N#CC1(NC(=O)CN2CCOCC2)CCCCCC1
MDR1-MDCK efflux ratio: 2.14 | intrinsic clearance, human liver microsomes: ≤ 4.74 mL/min/kg | intrinsic clearance, rat liver microsomes: 65.6 mL/min/kg | aqueous solubility: 45.1 µg/mL (≈ 170 µM)

COc1ccc(-c2nc(CC(N)=O)sc2C)cc1.Cl
MDR1-MDCK efflux ratio: 0.246 | intrinsic clearance, human liver microsomes: 166 mL/min/kg | intrinsic clearance, rat liver microsomes: 111 mL/min/kg | aqueous solubility: 30.3 µg/mL

Cc1cc(C)c(S(=O)(=O)Nc2ccc(N(C)C)cc2)c(C)c1-n1cnnn1
MDR1-MDCK efflux ratio: 9.73 | intrinsic clearance, human liver microsomes: 118 mL/min/kg | intrinsic clearance, rat liver microsomes: 89.2 mL/min/kg | aqueous solubility: 2.73 µg/mL (≈ 7.06 µM)

O=C(c1ccncc1)N1CCC(c2cnccn2)CC1
MDR1-MDCK efflux ratio: 2.71 | intrinsic clearance, human liver microsomes: ≤ 4.74 mL/min/kg | intrinsic clearance, rat liver microsomes: ≤ 10.7 mL/min/kg | aqueous solubility: 61.2 µg/mL (≈ 228 µM)

C[C@@H]1Cc2ccccc2N1C(=O)Cn1nc(-c2cccc3ncccc23)oc1=O
MDR1-MDCK efflux ratio: 0.843 | fraction unbound, human plasma: 0.0168 | fraction unbound, rat plasma: 0.0229 | intrinsic clearance, human liver microsomes: 73.8 mL/min/kg | intrinsic clearance, rat liver microsomes: 1080 mL/min/kg

Cc1cc(SCc2ccc(Cl)nc2)nc2ccccc12
intrinsic clearance, human liver microsomes: 327 mL/min/kg | intrinsic clearance, rat liver microsomes: 1380 mL/min/kg

Fc1ccc(F)c2c(NCc3ccc(N4CCOCC4)nc3)ccnc12
MDR1-MDCK efflux ratio: 1.29 | intrinsic clearance, human liver microsomes: 40.6 mL/min/kg | intrinsic clearance, rat liver microsomes: 151 mL/min/kg | aqueous solubility: 44.2 µg/mL (≈ 124 µM)

Nc1ncccc1OCc1cccc(Cl)c1
intrinsic clearance, human liver microsomes: 157 mL/min/kg | intrinsic clearance, rat liver microsomes: 721 mL/min/kg

CCN(CC)S(=O)(=O)c1ccc2c(c1)CCN2CC(=O)NCc1ccccc1F
MDR1-MDCK efflux ratio: 9.92 | intrinsic clearance, human liver microsomes: 337 mL/min/kg | intrinsic clearance, rat liver microsomes: 1800 mL/min/kg | aqueous solubility: 43.7 µg/mL (≈ 104 µM)

O=C(CN1CCCC(c2cccc(-c3cccc(Cl)c3)n2)C1)N1CCCC1 (stereo not drawn)
MDR1-MDCK efflux ratio: 2.16 | intrinsic clearance, human liver microsomes: 51.4 mL/min/kg | intrinsic clearance, rat liver microsomes: 419 mL/min/kg | aqueous solubility: 54.8 µg/mL (≈ 143 µM)

Cc1cc(C(=O)NC2CCN(C(=O)c3cc(C)sc3C)CC2)no1
MDR1-MDCK efflux ratio: 1.56 | intrinsic clearance, human liver microsomes: 9.77 mL/min/kg | intrinsic clearance, rat liver microsomes: 93.7 mL/min/kg | aqueous solubility: 61.2 µg/mL (≈ 176 µM)

CNC(=O)N1CCc2nc3ccc(Cl)cn3c(=O)c2C1
MDR1-MDCK efflux ratio: 6.16 | intrinsic clearance, human liver microsomes: ≤ 4.74 mL/min/kg | intrinsic clearance, rat liver microsomes: ≤ 10.7 mL/min/kg | aqueous solubility: 50.5 µg/mL (≈ 173 µM)

Cc1nc(NC(c2nccn2C)C2CC2)c2sccc2n1 (stereo not drawn)
MDR1-MDCK efflux ratio: 13.9 | intrinsic clearance, human liver microsomes: 43.7 mL/min/kg | intrinsic clearance, rat liver microsomes: 319 mL/min/kg | aqueous solubility: 51.3 µg/mL (≈ 171 µM)
